Data as given in EP2060571A1, “Insecticide iminoheterocycles” (Bayer CropScience AG, priority 2007, dated 2009).
Where two headings read alike, the source gives them in different places.

How the values were obtained:
Myzus persicae = assay: Myzus test (spray treatment); type: in vivo; settings: Aufwandmenge 500 g/ha, Chinakohlblattscheiben (Brassica pekinensis) sprayed, 100 % = all aphids killed, read-out: Wirkung
From the text: Myzus-Test (Spritzbehandlung)
Zur Herstellung einer zweckmäßigen Wirkstoffzubereitung vermischt man 1 Gewichtsteil Wirkstoff mit den angegebenen Mengen Lösungsmittel und Emulgator und verdünnt das Konzentrat mit emulgatorhaltigem Wasser auf die gewünschte Konzentration.
Chinakohlblattscheiben (Brassica pekinensis), die von allen Stadien der Grünen Pfirsichblattlaus (Myzus persicae) befallen sind, werden mit einer Wirkstoffzubereitung der gewünschten Konzentration gespritzt.
Nach der gewünschten Zeit wird die Wirkung in % bestimmt. Dabei bedeutet 100 %, dass alle Blattläuse abgetötet wurden; 0 % bedeutet, dass keine Blattläuse abgetötet wurden.

[1] = logP determination (acidic, HCOOH); type: physicochemical
Boophilus microplus = Boophilus microplus test (BOOPMI injection); type: in vivo; settings: Aufwandmenge 20 µg/Tier; injected into the abdomen; 100 % = no tick laid fertile eggs
From the text: Boophilus microplus -Test (BOOPMI Injektion)
Lösungsmittel: Dimethylsulfoxid
Zur Herstellung einer zweckmäßigen Wirkstoffzubereitung vermischt man 1 Gewichtsteil Wirkstoff mit der angegebenen Menge Lösungsmittel und verdünnt das Konzentrat mit Lösungsmittel auf die gewünschte Konzentration.
Die Wirkstofflösung wird in das Abdomen (Boophilus microplus) injiziert, die Tiere werden in Schalen überführt und in einem klimatisierten Raum aufbewahrt.
Nach der gewünschten Zeit wird die Wirkung in % bestimmt. Dabei bedeutet 100%, dass keine Zecke fertile Eier gelegt hat.

[2] = hcooh, read-out: Phys. Daten = logP (HCOOH)
[3] = acidic (HCOOH), read-out: Phys. Daten = logP (HCOOH)

OCCNC(=S)NC1CCCc2occc21 (stereo not shown) [II-2, 1-(2-hydroxyethyl)-3-(4,5,6,7-tetrahydro-1-benzofuran-4-yl)thiourea]
mortality at 500 g/ha (Myzus persicae): ≥ 80% | logP [1, 2]: 1.4 | logP ([1]; sauer, read-out: logP (sauer)): 1.4

C[C@H](NC(=S)NCCO)c1cccs1 [II-74]
logP [1, 2]: 1.3

OCCNC(=S)NC1CCc2ccsc21 (stereo not shown) [II-1, (5,6-dihydro-4H-cyclopenta[b]thiophen-6-yl)-3-(2-hydroxyethyl)thiourea]
mortality at 500 g/ha (Myzus persicae): ≥ 80% | logP [1, 2]: 1.47 | logP ([1]; sauer, read-out: logP (sauer)): 1.47

CC(C)c1cs/c(=N\C2CCCc3occc32)n1CCO (stereo not shown) [I-2]
mortality at 500 g/ha (Myzus persicae): ≥ 80% | logP [1, 3]: 1.23 | logP ([1]; sauer, read-out: logP (sauer)): 1.23

CC(C)c1cs/c(=N\C2CCc3ccsc32)n1CCO (stereo not shown) [I-1, 2-[(2Z)-2-(5,6-dihydro-4H-cyclopenta[b]thiophen-6-ylimino)-4-(1-methylethyl)-1,3-thiazol-3(2H)-yl]ethanol]
Wirkung (Boophilus microplus): ≥ 80% | mortality at 500 g/ha (Myzus persicae): ≥ 80% | logP [1, 3]: 1.19 | logP ([1]; sauer, read-out: logP (sauer)): 1.19

OCCNC(=S)NC1CCCc2sccc21 (stereo not shown) [II-3]
mortality at 500 g/ha (Myzus persicae): ≥ 80% | logP [1, 2]: 1.7
